Measurements as given in patent US20080090900A1, “ANTIBIOTIC BUSHRIN” (University of Karachi, priority 2006, published 2008).

Columns and labels:
Staphylococcus aureus = assay: Spheroplasting activities; assay type: cell-based; details: Luria broth with 0.3M sucrose, 90 minutes, phase contrast microscope
Protocol: Aliquots (100 μl) of an exponential phase culture(A600,0.05) grown in Luria broth supplemented with 0.3M concentration of sucrose were dispensed into test tubes containing different concentration of Compound 1 and 1 μl/ml ampicillin as positive control. The tubes were then incubated at 30° C. with shaking at 140 rpm. After 90 minutes, the cells were examined by phase contrast microscope for any morphological changes or for the presence of spheroplast. To confirm the osmotic fragility of the spheroplast the lytic effect of 2-3 μl of water added under the cover slip was tested.

[1] = test system: Staphylococcus aureus (ATCC33591); assay: Time kill experiment; details: at two and four times the MIC

| Structure (SMILES) | formation of osmotically fragile spheroplasts (Staphylococcus aureus) | course of viable bacterial cell count [1] |
| --- | --- | --- |
| CC1(C)S[C@@H]2[C@H](NC(=O)[C@H](N)c3ccccc3)C(=O)N2[C@H]1C(=O)O [ampicillin, reference compound] | observed | decreased gradually |
| CN[C@H](CC(C)C)C(=O)N[C@H]1C(=O)N[C@@H](CC(N)=O)C(=O)N[C@H]2C(=O)N[C@H]3C(=O)N[C@H](C(=O)N[C@H](C(=O)O)c4cc(O)cc(O)c4-c4cc3ccc4O)[C@H](O)c3ccc(c(Cl)c3)Oc3cc2cc(c3O[C@@H]2O[C@H](CO)[C@@H](O)[C@H](O)[C@H]2O[C@H]2C[C@](C)(N)[C@H](O)[C@H](C)O2)Oc2ccc(cc2Cl)[C@H]1O [vancomycin, reference compound] |  | decreased gradually |
